Assay results reported in patent US20240139167A1, “LYSOSOME-ASSOCIATED MEMBRANE PROTEIN TARGETING COMPOUNDS AND USES THEREOF” (HADASIT MEDICAL RESEARCH SERVICES AND DEVELOPMENT LTD., priority 2021, published 2024).

Legend:
[1] = test system: Agl^−/− mice; assay: Blood metabolic panel in Agl^-/- mice (GSD3); assay type: in vivo; conditions: 6-months mice treated for 3 months
Text: FIG. 18 includes a vertical bar graph showing blood metabolic panel based on n=5-6 6-months wildtype or Agl^−/− mice treated as indicated for 3 months.

[2] = Pharmacokinetics, tissue levels by LC-MS/MS; assay type: in vivo, mice; conditions: 250 mg/kg subcutaneous
Text: FIGS. 2A-2C include images and graphs of histopathological effects of Compound 1 and its pharmacokinetics: right panel present images of indicated tissues of sacrificed mice and stained for PG (arrows) with PAS following treatment with diastase; left panel, presents bar graphs quantifying PAS staining, based on analysis of 4 sections from each tissue in n=2 wild type, n=7 Gbe^ys/ys vehicle-treated, and n=9 Compound 1-treated mice (2A); bar graph quantifying total glycogen in the respective tissues (2B); graph of Compound 1pharmacokinetics (2C); 9 months old Gbe^ys/ys mice were SC-injected with 150 μL of Compound 1 at 250 mg/kg. Mice were sacrificed 30-, 60-, 90-, and 210-min post injection and the indicated tissues were removed, as well as 200 μL of serum drawn. […] Shown are means and SEM of results obtained from n=3 mice at each time point.
For pharmacokinetic analysis, 100 μL serum as well as brain, kidney, hind limb quad muscle, heart, liver, and spleen tissues were collected, homogenized, and extracted with acetonitrile following established guidelines. Calibration curves were made with 0, 1, 10, 100, and 1,000 ng/ml Compound 1 in 1 mg/ml solutions of 4-tert-butyl-2-(4H-1,2,4-triazol-4-yl)phenol (ChemBridge) as internal standard (IS). Tissue samples were then dissolved in 1 mg/ml IS solutions and spiked with 0-1,000 ng/ml Compound 1 to generate standard curves from which tissue levels of Compound 1 were determined. Samples were analyzed by the LC-MS/MS Sciex Triple Quad™ 5500 mass spectrometer.
Pharmacokinetic analysis is instrumental for explaining the effects of Compound 1 in-situ regardless of its innate capacity to modify polyglucosans in isolated cells. The reason for that is that timing of arrival, distribution and stability in the tissue are key determinants of the in-situ activity of any pharmacological agent. To determine the distribution and kinetic parameters of Compound 1 in different tissues, the inventors have treated Gbe^ys/ys mice with 250 mg/kg Compound 1 via subcutaneous injection, as done in the efficacy experiments. Mice were then sacrificed 0, 30-, 60-, 90-, and 210-min post administration and 100 μL serum as well as brain, kidney, hind limb skeletal muscle, heart, liver, and spleen tissues were collected, homogenized, extracted and their Compound 1 levels were analyzed by liquid chromatography tandem mass spectrometry (LC-MS/MS). The differential effects of Compound 1 on glycogen and polyglucosan content in the different tissues match its differential distribution and dwell time in each respective tissue. […] However, those levels persist up until 60 minutes post injection, which might account for the Compound 1-mediated reduction in polyglucosan, and glycogen content observed in these tissues. […] Based on the sampling times used, time to C. was 30 min for all the tissues studied indicating similar rate of absorption to all these tissues. The highest C. is observed in liver and kidney matching their well-established rapid perfusion.

[3] = target: T1, LAMP1 (Homo sapiens, UniProt P11279); assay: Cellular thermal shift assay (CETSA); assay type: binding
T1 construct: endogenous in cells
T1 sequence (P11279 29-417): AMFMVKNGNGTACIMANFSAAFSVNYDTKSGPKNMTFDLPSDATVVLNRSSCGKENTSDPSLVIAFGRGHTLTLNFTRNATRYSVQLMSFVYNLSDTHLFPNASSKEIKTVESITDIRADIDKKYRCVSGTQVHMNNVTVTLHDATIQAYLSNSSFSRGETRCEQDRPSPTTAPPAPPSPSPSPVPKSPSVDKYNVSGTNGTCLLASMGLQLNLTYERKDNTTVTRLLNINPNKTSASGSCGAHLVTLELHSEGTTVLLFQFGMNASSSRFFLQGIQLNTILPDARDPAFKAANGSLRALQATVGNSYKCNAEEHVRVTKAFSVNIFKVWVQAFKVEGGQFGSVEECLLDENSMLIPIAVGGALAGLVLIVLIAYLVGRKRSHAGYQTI
Text: FIGS. 5A-5E include images of experiments showing hetero-assembly forms around Compound 1 and not around endogenous molecules as shown by the liquid crystals formed in experiments 1-3 (5A); image of STRING network of targets at the interactome of Compound 1 (5B); cellular thermal shift assay (CETSA) of different targets of the Compound 1 hetero-assembly (5C); surface plasmon resonance sensograms of binding of Compound 1 to LAMP1 (5D); sensogram experiments consisting of association and dissociation at the indicated concentration ranges and pH values were then conducted.
The inventors have investigated the mechanism of action of 144DG11. To that end, the inventors first decided to determine its molecular target. Nematic protein organization technique (NPOT, Inoviem, Ltd.) was applied to homogenates of APBD patient fibroblasts. The NPOT analysis has discovered protein hetero assemblies uniquely generated around 144DG11 only when it was added to the cell homogenates (FIG. 5A). The next step in this analysis has identified the interactome of protein targets interacting with 144DG11 in APBD patients' fibroblasts. […] In the search for a putative binding site for Compound 1 in LAMP1, the inventors have analyzed the N- and C-terminal subdomains of its luminal domain (residues A29-R195 and S217-D378, respectively), which have a similar topology. […]

COCCN(Cc1sccc1C)C(=O)c1cc(C)nc(O)c1 [Compound 1]
blood triglycerides [1]: decreased | C. in liver and kidney, rank among tissues [2]: highest | C. in skeletal quadriceps muscle, rank among tissues [2]: lowest | accumulation in muscle [2]: negligible accumulation | levels in heart and brain [2]: intermediate levels | persistence of levels in heart and brain post injection [2]: ≤ 60 min | time to C. ([2]; all the tissues studied): 30 min | half-life ([2]; mouse, liver, sc, Gbe^ys/ys mice): > 3 h | increase in LAMP1 levels [3]: 1.2 fold | interaction with LAMP1 (not other protein targets; 6 of 8 NPOT targets tested) [3]: directly interacts
